# Active and inactive are the calls of the source. The rule behind the calls is not given here.
# Tested on: CCRIS mutagenicity, Ames/micronucleus/aberration tests
# Assay: CCRIS mutagenicity studies
# [1] = Test System: AMES SALMONELLA TYPHIMURIUM, Strain/Indicator: TA100, Metabolic Activation: NONE, Method: STANDARD PLATE
# [2] = Test System: AMES SALMONELLA TYPHIMURIUM, Strain/Indicator: TA100, Metabolic Activation: RAT, LIVER, S-9, AROCLOR 1254, Method: STANDARD PLATE
smiles,measurement,setting,value
Cc1ccc(N=Nc2c(O)ccc3ccccc23)cc1C,mutagenic call,"Test System: AMES SALMONELLA TYPHIMURIUM, Strain/Indicator: TA98, Metabolic Activation: NONE, Method: STANDARD PLATE",inactive; negative
same,mutagenic call,"Test System: AMES SALMONELLA TYPHIMURIUM, Strain/Indicator: TA98, Metabolic Activation: RAT, LIVER, S-9, Method: STANDARD PLATE",inactive; negative
same,mutagenic call,[1],inactive; negative
same,mutagenic call,"Test System: AMES SALMONELLA TYPHIMURIUM, Strain/Indicator: TA100, Metabolic Activation: RAT, LIVER, S-9, Method: STANDARD PLATE",inactive; negative
CCOP(=S)(OCC)SCCSCC,mutagenic call,"End Point: In vivo micronucleus, Test System: Micronucleated polychromatic erythrocytes, Species: Mouse, Strain/Sex: Hsd/Win: NMRI/Male and female, Route: Intraperitoneal","active; positive at 24 and 48 hr compared with the concurrent control, but equivocal com"
same,mutagenic call,"Test System: AMES SALMONELLA TYPHIMURIUM, Strain/Indicator: TA1535, Metabolic Activation: NONE, Method: STANDARD PLATE",active; positive
same,mutagenic call,"Test System: AMES SALMONELLA TYPHIMURIUM, Strain/Indicator: TA1535, Metabolic Activation: S-9 MIX, Method: STANDARD PLATE",active; positive
same,mutagenic call,"Test System: E. coli polA test, Strain/Indicator: (K12)p3478/W3110, Metabolic Activation: None, Method: Plate test with 24 hr exposure",inactive; negative
same,mutagenic call,"Test System: E. coli polA test, Strain/Indicator: (K12)p3478/W3110, Metabolic Activation: S-9, Method: Plate test with 24 hr exposure",inactive; negative
same,mutagenic call,"Test System: UDS HUMAN FIBROBLASTS, Strain/Indicator: THY INCORP (NON-S-PHASE), Metabolic Activation: NONE, Method: LIQUID SCINTILLATION COUNTING",active; positive
O=c1c(=O)c2cc3ccccc3c3ccc4cccc1c4c23,mutagenic call,[2],active; positive
C=C(C#N)C(=O)OCC,mutagenic call,[1],inactive; negative
same,mutagenic call,[2],inactive; negative
O=c1oc2ccccc2c(O)c1C1CCCc2ccccc21 (stereo unspecified),mutagenic call,"Test System: AMES SALMONELLA TYPHIMURIUM, Strain/Indicator: TA97, Metabolic Activation: NONE",inactive; negative
same,mutagenic call,"Test System: AMES SALMONELLA TYPHIMURIUM, Strain/Indicator: TA97, Metabolic Activation: S-9",inactive; negative
same,mutagenic call,"Test System: AMES SALMONELLA TYPHIMURIUM, Strain/Indicator: TA98, Metabolic Activation: NONE",inactive; negative
same,mutagenic call,"Test System: AMES SALMONELLA TYPHIMURIUM, Strain/Indicator: TA98, Metabolic Activation: S-9",inactive; negative
same,mutagenic call,"Test System: AMES SALMONELLA TYPHIMURIUM, Strain/Indicator: TA100, Metabolic Activation: NONE",inactive; negative
same,mutagenic call,"Test System: AMES SALMONELLA TYPHIMURIUM, Strain/Indicator: TA100, Metabolic Activation: S-9",inactive; negative
same,mutagenic call,"Test System: AMES SALMONELLA TYPHIMURIUM, Strain/Indicator: TA102, Metabolic Activation: NONE",inactive; negative
same,mutagenic call,"Test System: AMES SALMONELLA TYPHIMURIUM, Strain/Indicator: TA102, Metabolic Activation: S-9",inactive; negative

# — PubChem BioAssay AID1259407 (Chemical Carcinogenesis Research Information System (CCRIS), 2018)
